Experimental data: PMC8453114 (Journal of molecular biology, 2021)

Target: T1, HTLV-1 myr(−)MA (Human T-cell leukemia virus type I, UniProt Q9QR99)
Assay: 1H-15N HSQC NMR titration
Format: binding

Point of comparison: `O=P(O)(O)O[C@H]1[C@H](OP(=O)(O)O)[C@@H](OP(=O)(O)O)[C@H](OP(=O)(O)O)[C@@H](OP(=O)(O)O)[C@H]1OP(=O)(O)O` [IP6, inositol hexakisphosphate], Kd 23 ± 11 µM. Against it:
- O=P(O)(O)O[C@@H]1[C@H](O)[C@H](O)[C@@H](OP(=O)(O)O)[C@H](OP(=O)(O)O)[C@H]1O [IP3, inositol 1,4,5-trisphosphate] — 15-fold higher, 338 ± 42 µM
- CCCC(=O)OC[C@H](COP(=O)(O)O[C@@H]1[C@H](O)[C@H](O)[C@@H](OP(=O)(O)O)[C@H](OP(=O)(O)O)[C@H]1O)OC(=O)CCC [diC4-PI(4,5)P2] — 13-fold higher, 306 ± 30 µM
- CCCCCC(=O)OC[C@H](COP(=O)(O)O[C@@H]1[C@H](O)[C@H](O)[C@@H](OP(=O)(O)O)[C@H](OP(=O)(O)O)[C@H]1O)OC(=O)CCCCC [diC6-PI(4,5)P2] — 8.5-fold higher, 195 ± 19 µM

Target: T1, HTLV-1 myr(−)MA
Assay: 1H NMR liposome
Format: binding

Point of comparison: `CCCCCCCCCCCCCCCC(=O)OC[C@H](COP(=O)(O)O[C@@H]1[C@H](O)[C@H](OP(=O)(O)O)[C@@H](O)[C@H](OP(=O)(O)O)[C@H]1O)OC(=O)CCCCCCCCCCCCCCC` [diC16-PI(3,5)P2, dipalmitoyl-phosphatidylinositol 3,5-bisphosphate], Kd 32 ± 2 µM. Against it:
- CCCCCCCC/C=C\CCCCCCCC(=O)O[C@H](COC(=O)CCCCCCCCCCCCCCC)COP(=O)(O)OC[C@H](N)C(=O)O [POPS, 1-palmitoyl-2-oleoyl-sn-glycero-3-phospho-L-serine] — 3.7-fold higher, 118 ± 16 µM
